Earlier results, collected in US8021854B2, “Method of treating vascular disease” (priority 2007, dated 2011).
Read-outs that look alike come from different tables or passages of the source.

Legend:
[1] = in vivo
[2] = test system: patients with essential thrombocythemia at high risk for vascular events; details: versus hydroxyurea group
[3] = test system: platelets of patients with essential thrombocythaemia; details: during therapy
[4] = test system: patients with myeloproliferative disorders; details: 577 patients
[5] = test system: patients with thrombocythemic states; details: 942 patients
[6] = test system: patients with and without significant cardiovascular history
[7] = test system: vaso-occlusive disease; details: low doses of aspirin

O=C1CN2Cc3c(ccc(Cl)c3Cl)N=C2N1 [anagrelide]
adverse reaction: chest pain [1]: 8% | adverse reaction: peripheral edema [1]: 9% | adverse reaction: tachycardia [1]: 8% | withdrawal from assigned treatment ([2]; P<0.001): more likely to withdraw | odds ratio of reaching the primary end point ([2]; median follow-up 39 months, 95 percent CI 1.04 to 2.37, P=0.03): 1.57 | functional or chemical platelet abnormalities [3]: no functional or chemical abnormality was improved | platelet count [3]: corrected | platelet volume [3]: constantly increased | study population that discontinued therapy due to adverse events ([4]; mean treatment duration 65 weeks): Sixteen | discontinuation of therapy due to cardiovascular adverse events ([4]; 23 patients): 4% | palpitations and tachycardia (patients) ([4]; 209 patients): 36% | patients who died from cardiovascular adverse events ([4]; four had preexisting coronary artery disease): Seven | congestive heart failure (patients) ([4]; fourteen patients): 2.4% | deaths [5]: 50 | deaths from cardiac causes [5]: 15 | fluid retention [5]: 22% | palpitations [5]: 26% | patients who discontinued the agent due to adverse events [5]: Thirteen | severity of cardiovascular events (palpitations, edema, tachycardia) ([6]; 492 patients): generally mild and did not increase cardiovascular disease morbidity | patients experiencing cardiovascular adverse events ([6]; patients with history of cardiac disease, 22 of 90): 24% | patients experiencing cardiovascular adverse events ([6]; patients without history of cardiac disease, 30 of 402, p=0.0001): 7%

CC(=O)Oc1ccccc1C(=O)O [aspirin, Acetyl salicylic acid]
incidence of major haemorrhage [7]: less than 1% | morbidity and mortality reductions ([7]; vaso-occlusive disease, Physician's Health Study): 45%
